# Measurements from US20110201582A1, “METHOD AND COMPOSITION FOR TREATMENT OF SKIN CONDITIONS” (priority 2004, published 2011).
# “Also recorded” adds a separate entry of the source. Structures can show the parent of a compound that is named as a salt.
# System: eczema, seborrheic dermatitis and allergic skin reactions
# Assay: Applicant's general experiments: compounds applied to the affected skin area alone or before a topical corticosteroid
# Type: in vivo, adult patient
# Settings: for effectiveness in alleviating the symptoms: applied alone, with no steroid; for enhancement of effectiveness of the topical corticosteroid: applied to affected area prior to the topical corticosteroid, compared with topical corticosteroid alone; for effectiveness compared with hydrocortisone 2.5% alone: decongestant alone applied before hydrocortisone 0.5%
# Method: The experiments were conducted in order to try to treat these conditions as well as to try to enhance the performance of hydrocortisone and other topical corticosteroids in the treatment of these conditions.
# With respect to the use of compounds to try to enhance the effectiveness of topical corticosteroids, the experiments involved first applying to the affected area particular compounds and then shortly thereafter applying to the same affected area a topical corticosteroid. For example, compounds that were tried include eye drop solutions, nasal decongestant sprays and other kinds of compounds available over the counter or by prescription. Antihistamine and decongestant combinations were tried as a solution to be applied to the affected area prior to the application of the steroid. In addition, antihistamines alone (preceding the corticosteroid) and decongestants alone (preceding the corticosteroid) were tried. As stated above, antihistamines alone (without the corticosteroid) and decongestants alone (without the corticosteroid) were also tried.
# An increase in effectiveness is defined as greater alleviation of the dermatological symptoms of the condition or speedier alleviation of the dermatological symptoms of the condition or both.
# That is, the identical experiment was conducted for the same condition but without preceding (or following) the application of the corticosteroid cream with an application of any solution in according with the method of the present invention.
Compound,effectiveness in alleviating the symptoms (HCL),enhancement of effectiveness of the topical corticosteroid,effectiveness compared with hydrocortisone 2.5% alone,enhancement of effectiveness of the topical corticosteroid (HCL)
CNC[C@H](O)c1cccc(O)c1 [phenylephrine HCL],"works somewhat to alleviate dermatological symptoms, albeit not fantastically; also recorded: mildly effective alleviation",only mild enhancement of effectiveness,performs better,
c1ccc2c(CC3=NCCN3)cccc2c1 [naphazoline HCL],"works somewhat to alleviate dermatological symptoms, albeit not fantastically; also recorded: mildly effective alleviation",,performs better,slightly greater than that of a topical corticosteroid alone; also recorded: only mild enhancement of effectiveness
